“And” between values parts separate entries of the source, which are not always exact repeats. Equal values may be shown once.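 Test compounds were applied to cells in 96-well plates for 48 hours at 5 doses. GI50: concentration for 50% inhibition of growth. The concentration for full growth arrest is given as TGI.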
How the values were obtained:
Assay in all cases: growth of human tumour cells (NCI), 48 h
RPMI-8226 leukemia = test system: RPMI-8226 leukemia
OVCAR-3 ovarian = test system: OVCAR-3 ovarian
RXF 393 renal = test system: RXF 393 renal
SK-OV-3 ovarian = test system: SK-OV-3 ovarian
SK-MEL-2 melanoma = test system: SK-MEL-2 melanoma
TK-10 renal = test system: TK-10 renal
HL-60(TB) leukemia = test system: HL-60(TB) leukemia
SNB-75 CNS = test system: SNB-75 CNS
ACHN renal = test system: ACHN renal
CAKI-1 renal = test system: CAKI-1 renal

Structure (SMILES) | TGI (RPMI-8226 leukemia) [µM] | TGI (OVCAR-3 ovarian) | TGI (RXF 393 renal) [µM] | TGI (SK-OV-3 ovarian) | TGI (SK-MEL-2 melanoma) [µM] | TGI (TK-10 renal) | TGI (HL-60(TB) leukemia) | TGI (SNB-75 CNS) | TGI (ACHN renal) | TGI (CAKI-1 renal) | GI50 (RPMI-8226 leukemia) | GI50 (OVCAR-3 ovarian) | GI50 (RXF 393 renal) [µM] | GI50 (SK-OV-3 ovarian) [nM] | GI50 (SK-MEL-2 melanoma) | GI50 (HL-60(TB) leukemia) | GI50 (SNB-75 CNS) | GI50 (CAKI-1 renal) [µM] | GI50 (ACHN renal) | GI50 (TK-10 renal)
COC(=O)C1=C(O)C(C(=O)OC)[C@@]2(O)[C@@H](C(=O)OC)[C@H](C)C[C@@H]1[C@@H]2C(=O)OC (some centres undefined) | 71.5 | 40.2 µM | 58.9 | 72.9 µM | 58.9 | > 100 µM | 73.8 µM | 78.1 µM | > 100 µM |  |  |  |  |  |  |  |  |  |  | 
O=c1c(-c2ccccc2)c(SCCCN2CCCCC2)n(-c2ccccc2)c(=S)n1-c1ccccc1 | 37.7 | 34.3 µM | 27.7 | 45.4 µM | 30.3 | 37.3 µM | 38.6 µM | 29.5 µM | 34.4 µM | 38.7 µM |  |  |  |  |  |  |  |  |  | 
O=c1[nH]c2ccccc2c2oc3ccccc3c12 |  | > 100 µM | > 100 | > 100 µM |  | > 100 µM |  | 32.6 µM | > 100 µM | > 100 µM |  |  |  |  |  |  |  |  |  | 
O=[N+]([O-])c1ccc(N/N=C\c2cc(Br)ccc2O)nc1 | > 100 | 2.3 µM | 9.95 | 12 µM | > 100 |  | > 100 µM | 3.85 µM | 2.56 µM | 2.35 µM | 0.753 µM | 0.525 µM | 2.17 | 1270 | 4.88 µM | 0.314 µM | 1320 nM | 0.459 | 0.461 µM | 
O=c1c2ccccc2nc2n1CCc1c-2[nH]c2ccccc12 | > 100 |  | 34.5 | 37.8 µM |  | 63.5 µM | > 100 µM | 40.7 µM |  | 47.9 µM |  |  |  |  |  |  |  |  |  | 
NCCCCNOCCCN | > 100 | > 100 µM | > 100 | > 100 µM | > 100 | > 100 µM |  | > 100 µM | > 100 µM | > 100 µM |  |  |  |  |  |  |  |  |  | 
COC(=O)C(C)NP(=O)(OCc1cccc(Cn2cnc3c(N)ncnc32)c1)Oc1ccccc1 (centres undefined) | > 100 | > 100 µM | > 100 |  | > 100 | > 100 µM | > 100 µM | > 100 µM | > 100 µM | > 100 µM | > 100 µM | 43 µM | 27.8 |  | > 100 µM | 46.8 µM | > 100000 nM | > 100 | > 100 µM | > 100 µM
CCOC(=O)c1c(Cl)c2c(n1Cc1ccccc1)-c1oncc1CCC2 | > 100 |  |  | > 100 µM |  | > 100 µM | > 100 µM |  | > 100 µM | > 100 µM | 3.27 µM |  |  | > 100000 |  | 3.32 µM |  | 3.51 | 5.89 µM | > 100 µM
C/C=C(/CCC1NCCc2c1[nH]c1ccccc21)[Si](C)(C)C (centres undefined) |  | > 100 µM and 13.9 µM |  | > 100 µM and 26.2 µM |  | > 100 µM and 24.8 µM |  | > 100 µM and 19.9 µM | > 100 µM and 21.5 µM | > 100 µM and 18.3 µM |  |  |  |  |  |  |  |  |  | > 100 µM and 12.2 µM
CC(C)(C)OC(=O)CC(NC(=O)OCc1ccccc1)NC(=O)OC(C)(C)C (centres undefined) |  |  |  |  |  |  | 50.7 µg/mL |  |  |  | 32.8 µg/mL | 62.7 µg/mL |  |  | 48.1 µg/mL | 20.8 µg/mL | 20.8 µg/mL |  | 51.5 µg/mL | 

— PubChem BioAssay (NCI)
